Assay results reported in US9649333B2, “Oxygenation procedures for newborns and devices for use therein” (UTI Limited Partnership, priority 2008, dated 2017).
Where two headings read alike, the source gives them in different places.

Test system: preterm infants
Settings: for time immediately after birth to reach the target range: FIG. 3
Description: Blinded, randomized control trial of delivery room resuscitation in infants 32 weeks gestation comparing three O2 strategies. The High O2 Burden (HOB) group received a static concentration of 100% O2. In the Moderate O2 Burden (MOB) and Low O2 Burden (LOB) groups, resuscitation started with 100% and 21% O2, respectively. The inspired oxygen concentration was adjusted by 20% every 15 seconds in the MOB and LOB groups until the target SpO2 range of 85% to 92% was reached. SpO2 measurements were recorded every 2 seconds from the right wrist (pre-ductal) and the maximum sensitivity setting of the pulse oximetry was used. An anesthesia monitor continuously measured and recorded respiratory parameters including the peak inspiratory pressure, respiratory rate, end-tidal CO2 and inspired O2 concentration.
There were three sets of preterm infants that were part of this study. The LOB (low oxygen burden group—resuscitation began with room air given followed by a 20% increase every 15 sec as long as the oxygen saturation was less than 85%), MOB ([…] began with 100% oxygen given and decreased 20% every 15 sec as long as the oxygen saturation was greater than 92%) and HOB (high oxygen burden group—100% oxygen given continuously). The inventors enrolled 106 preterm infants (≦32 weeks gestation) (LOB=34, MOB=[…]).

[1] = HOB group: static 100% O2, target SpO2 85-92%
[2] = LOB group: start 21% O2, titrated
[3] = LOB group: start 21% O2, titrated, target SpO2 85-92%
[4] = MOB group: start 100% O2, titrated
[5] = MOB group: start 100% O2, titrated, target SpO2 85-92%

In the case of `O=O` [oxygen], the “Mean duration of resuscitation” value (HOB group: static 100% O2) is reported as 590.62 s, the “mean proportion of resuscitation time spent in the target SpO2 range (85-92%)” value (“mean proportion … (85-92%)” for short) (HOB group: static 100% O2) is reported as 11% and the “Mean proportion of time above target” value [1] is reported as 0.49. For the same compound, the “Mean proportion of time below target” value [1] was 0.40, the “proportion of time above range” value [1] was 49% and the “time immediately after birth to reach the target range” value (HOB group, target SpO2 85-92%) was “approximately 5 minutes”. The “Mean proportion of time in target” value (High O2 Burden (HOB) group: static 100% O2, target SpO2 85-92%) was 0.11, the “Mean duration of resuscitation” value [2] was 677.00 s and the “mean proportion … (85-92%)” value [2] was 16%. For the same compound, the “Mean proportion of time above target” value [3] was 0.23, the “Mean proportion of time below target” value [3] was 0.61 and the “proportion of time below range” value [3] was 61%. The “Mean proportion of time in target” value (Low O2 Burden (LOB) group: start 21% O2, adjusted by 20% every 15 seconds, target SpO2 85-92%) was 0.16, the “more time in target range than the LOB group” value (MOB group versus LOB group, target SpO2 85-92%) was “approximately 25%” and the “Mean duration of resuscitation” value [4] was 665.00 s. For the same compound, the “mean proportion … (85-92%)” value [4] was 21%, the “Mean proportion of time above target” value [5] was 0.28 and the “Mean proportion of time below target” value [5] was 0.51. For the same compound, the “time immediately after birth to reach the target range” value (MOB group, target SpO2 85-92%) was “approximately 5 minutes” and the “Mean proportion of time in target” value (Moderate O2 Burden (MOB) group: start 100% O2, adjusted by 20% every 15 seconds, target SpO2 85-92%) was 0.21.
